{"source": "paper PMC11619157", "about": "“Stephanine Protects Against Osteoporosis by Suppressing Osteoclastogenesis via Inhibition of the RANKL—RANK Interaction” (Journal of Cellular and Molecular Medicine, 2024)", "key": {"RANKL": {"biological_target": "T1, RANKL (Homo sapiens, UniProt O14788)", "T1 construct": "gene TNFSF11; extracellular domain", "T1 sequence (O14788 69-317 limits assumed)": "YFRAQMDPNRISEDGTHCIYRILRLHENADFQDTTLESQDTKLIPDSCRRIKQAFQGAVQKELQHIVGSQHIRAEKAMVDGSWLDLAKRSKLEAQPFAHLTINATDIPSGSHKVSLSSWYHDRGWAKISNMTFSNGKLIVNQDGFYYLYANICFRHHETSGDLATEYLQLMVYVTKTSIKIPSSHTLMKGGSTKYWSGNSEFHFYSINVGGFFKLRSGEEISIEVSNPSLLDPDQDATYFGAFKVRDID", "experiment": "SPR kinetics (Biacore S200), RANKL amine-coupled on CM5 chip", "assay_type": "binding"}, "RANK": {"biological_target": "T2, RANK (Homo sapiens, UniProt Q9Y6Q6)", "T2 construct": "gene TNFRSF11A; extracellular domain", "T2 sequence (Q9Y6Q6 30-212 limits assumed)": "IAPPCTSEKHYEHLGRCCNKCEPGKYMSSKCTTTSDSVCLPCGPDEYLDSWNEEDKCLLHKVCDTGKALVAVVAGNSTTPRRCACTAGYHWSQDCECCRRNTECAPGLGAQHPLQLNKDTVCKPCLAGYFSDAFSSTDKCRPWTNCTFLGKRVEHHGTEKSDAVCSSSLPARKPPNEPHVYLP", "experiment": "SPR kinetics (Biacore S200), RANK amine-coupled on CM5 chip", "assay_type": "binding"}}, "data": [{"smiles": "COc1cccc2c1C[C@@H]1c3c(cc4c(c3-2)OCO4)CCN1C", "note": "[SA, Stephanine]", "values": [{"measurement": "Kd", "setting": "RANKL", "result": 76.5, "unit": "µM"}, {"measurement": "Kd", "setting": "RANK", "result": 3.7, "unit": "µM"}]}]}
